Data from patent publication US20240307409A1, “ARGININE METHYLTRANSFERASE INHIBITOR AND USE THEREOF” (Cytosinlab Therapeutics Co., Ltd., priority 2021, published 2024).

Columns and labels:
PRMT1 = PRMT1 (Homo sapiens, UniProt Q99873); assay: PRMT1 enzyme activity test; assay type: biochemical; details: 0.5 nM PRMT1, 3H-SAM, peptide
Method: PRMT1 enzyme activity test were performed in a buffer prepared on the same day 5 consisting of 10 mMTirs-HCl (pH=8.0), 0.01% Tween-20 and 1 mM DTT. The compounds were prepared to the highest inhibitor concentration ultimately required in the 100× reaction with 100% DMSO and then transferred to one well of a 384-well Echo plate (Echo-eligible 384-well polypropylene microplates 2.0, transparent, flat-bottomed) and sequentially diluted in the next well with a 3-fold dilution of 100% DMSO, and so on, with a total of 10 concentrations based on Precision. 100% DMSO was added to two empty wells to serve as control well without compound and control well without enzyme in the same 384-well Echo plate. 250 nL of compound was transferred from each well of the 384-well Echo plate to a 384-well assay plate (384-well polypropylene storage microplate) via the Echo 550 liquid processor. For wells with compounds and control well without compound, a mixture (15 uL) containing PRMT1 enzyme was added to the 384-well assay plate. For control wells without enzyme, the mixture containing the assay buffer (15 uL) was added instead. The compounds were allowed to incubate with PRMT1 for 15 minutes at room temperature, and then a mixture containing ^3H-SAM and peptide (10 uL) was added to start the reaction (final volume=25 uL). The final concentrations of the components were as follows: 0.5 nM for PRMT1, 0.25 uM for ^3H-SAM, 0.1 uM for the peptide, and 1% DMSO. After 120 min of incubation, the assay was terminated by the addition of non-radiolabeled SAM (5 uL) to a final concentration of 125 uM, which diluted 3H-SAM to a level at which its incorporation into the peptide substrate was no longer detected. 25 μL of the reaction solution from the 384-well assay plate was then transferred to a 384-well detection plate (Streptavidin FlashPlate HTS PLUS, high volume, 384 wells). The biotinylated peptide was allowed to bind to the surface of the antibiotic protein streptavidin for at least 60 minutes at room temperature. The Flashplate was then washed three times with 0.1% Tween-20 in a BioTek plate washer. Plates were read on a microplate counter (MicroBeta2) to measure the amount of ^3H-labeled peptide bound to the surface of the detection plate, measured in counts per minute (cpm).
The raw data were copied from the Reader and the inhibition values were calculated in Excel by Equation (1), Equation (1): Inh %=(CPMmax−CPMcmpd)/(CPMmax−CPMmin)*100, wherein the Max signal was obtained from the enzyme-substrate interaction and the Min signal was obtained from the substrate. IC50 values were obtained by fitting the data through equation (2) using XLFit add-in for Excel version […]. Equation (2): Y=Bottom+(Top-Bottom)/(1+((IC50/X)[…])), wherein, Y represents inhibition percentage and X represents compound concentration.

Toledo cells = assay: Toledo cell proliferation inhibition assay; assay type: cell-based; details: six-day assay, CellTiter-Glo
Method: • A. Purpose: to determine the effects of compounds on Toledo cells through a six-day cell proliferation assay. • B. Reagents and materials: • 1. Cell culture medium: RPMI 1640+10% FBS • 2. 384-well cell culture plate (Corning, item #3764) • 3. 0.4% Taipan Blue Staining Solution (Thermo Fisher, item #T10282) • 4. cell counting plate (Thermo Fisher, item #C10228) • 5. 50 ml reagent reservoir (Corning, item #4870) • 6. 50 ml conical sterile polypropylene centrifuge tube (Thermo Fisher, item #339653) • 7. Automatic cell counter (Thermo Fisher, item #AMQAX1000) • 8. CellTiter-Glo Luminescent Cell Viability Detection Reagent (Promega, item #G7572) • 9. SpectraMax i3x Multi-Mode Enzyme Labeling Instrument (Megaman Molecular Instruments, item #5024062) • C. Experimental method • 1. Resuspending the cells with a pipette. • 2. 0.4% Taipan blue staining solution and Toledo cells were mixed in equal proportion, and the cells were counted using an automatic cell counter. • 3. Toledo cells were diluted to a final concentration of 2000 cells per well and transferred to a 50 ml reagent reservoir. • 4. Diluted Toledo cells were added to a 384-well cell culture plate, 40 ul per well. • 5. The cells were shortly centrifuged and settled. • 6. The cells were incubated in a 37° C., 5% CO2 cell culture incubator. • 7. The substrate in the CellTiter-Glo Luminescent Cell Viability Detection Reagent was mixed with the solution. • 8. After six days, the 384-well cell culture plate was taken from the incubator and 20 ul of configured CellTiter-Glo reagent was added to each well. • 9. 384-well cell culture platewasmixed in an orbital shaker for 30 minutes. • 10. Signal of luminescence was detected with a SpectraMax i3x multi-mode enzyme labeling instrument.

Chain of PRMT1 (Q99873 whole entry): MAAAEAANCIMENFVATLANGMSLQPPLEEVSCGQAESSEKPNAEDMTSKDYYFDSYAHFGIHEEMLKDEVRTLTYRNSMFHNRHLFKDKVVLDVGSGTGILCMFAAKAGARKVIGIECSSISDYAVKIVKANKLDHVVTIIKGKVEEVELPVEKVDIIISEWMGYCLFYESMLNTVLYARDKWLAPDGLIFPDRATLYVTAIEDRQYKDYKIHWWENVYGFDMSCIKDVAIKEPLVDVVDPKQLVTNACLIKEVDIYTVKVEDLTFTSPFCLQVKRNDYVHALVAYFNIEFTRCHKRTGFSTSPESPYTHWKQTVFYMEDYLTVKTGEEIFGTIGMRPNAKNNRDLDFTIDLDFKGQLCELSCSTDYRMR

SMILES	IC50 (PRMT1) [nM]	IC50 (Toledo cells; Homo sapiens, Toledo, 144 h) [nM]	IC50 (Toledo cells) [nM]
CNCCN(C)Cc1ncccc1C1CCCCO1 (stereo not shown) [P247]	50 to 500		
CNCCN(C)Cc1ncccc1N1CCCOCC1 [P260]	< 50	1000 to 5000	
CCOC[C@H]1CC[C@H](c2cccnc2CN(C)CCNC)CC1 [P173]	< 50	< 1000	
CNCCN(C)Cc1ccccc1C1CCC2(CC1)CC(C)(C)CO2 (stereo not shown) [P040]	< 50		< 1000
CNCCN(C)Cc1ccc(CN2CCCC2)nc1C1CCN(c2cccc(C)c2)CC1 [P361]	< 50		
CCOCC1(COCC)CC=C(c2c(C)cccc2CN(C)CCNC)CC1 [P111]	< 50	< 1000	
CCOC(=O)C1CCN(c2cccnc2CN(C)CCNC)CC1 [P301]	< 50	1000 to 5000	
CNCCN(C)Cc1cc(C(=O)N(C)C)ccc1C1CCN(c2cccc(C)c2)CC1 [P100]	≥ 500	≥ 5000	
CNCCN(C)Cc1ncccc1C1CCN(c2cccnc2)CC1 [P214]	< 50	1000 to 5000	
CNCCN(C)Cc1ncccc1C1CCN(C(C)(C)O)CC1 [P244]	< 50		
CNCCN(C)Cc1ncccc1C1CCN(c2ccc3c(c2)OC(C)(C)O3)CC1 [P234]	50 to 500	1000 to 5000	
CNCCN(C)Cc1ncccc1N1CCCC(OC)CC1 (stereo not shown) [P233]	< 50	≥ 5000	
CNCCN(C)Cc1ccccc1C1=CCC2(CC1)CC(C)(C)CO2 (stereo not shown) [P042]	< 50	< 1000	
CNCCN(C)Cc1ncccc1C1CCN(c2ccc(C(=O)N(C)C)cc2)CC1 [P192]	< 50	≥ 5000	
CNCCN(C)Cc1cc(F)ccc1C1CCN(CCc2ccc(C(F)(F)F)cc2)CC1 [P010]	< 50	1000 to 5000	
CNCCN(C)Cc1ccc(Nc2nc3ccccc3[nH]2)nc1C1CCN(c2cccc(C)c2)CC1 [P366]	< 50		
CNCCN(C)Cc1ncccc1C1CCN(CCOCCOCCOCCOCCOCCN2CCC(c3cccnc3CN(C)CCNC)CC2)CC1 [P257]	< 50		
CNCCN(C)Cc1ccc(NC(=O)NC)nc1C1CCN(c2cccc(C)c2)CC1 [P353]	< 50		
CCOC(=O)c1cnc(Nc2ccc(CN(C)CCNC)c(C3CCN(c4cccc(C)c4)CC3)n2)[nH]1 [P367]	< 50		
CNCCN(C)Cc1ccc(NS(C)(=O)=O)nc1C1CCN(c2cccc(C)c2)CC1 [P357]	50 to 500		

SMILES	IC50 (PRMT1) [nM]	IC50 (Toledo cells; Homo sapiens, Toledo, 144 h) [nM]	IC50 (Toledo cells) [nM]
CNCCN(C)Cc1ncccc1C1CCN(c2ccnnc2)CC1 [P289]	< 50		
Cc1cccc(N2CCC(c3nc(N)cnc3CN(C)CCN)CC2)c1 [P369]	< 50		
CNCCN(C)Cc1ccc(Nc2ccc(F)cc2)nc1C1CCN(c2cccc(C)c2)CC1 [P354]	50 to 500		
CNCCN(C)Cc1ncccc1C1CCN(C(=O)C(C)C)CC1 [P235]	< 50		
CNCCN(C)Cc1ccc(Nc2ncc[nH]2)nc1C1CCN(c2cccc(C)c2)CC1 [P355]	< 50		
CNCCN(C)Cc1ncccc1C1CCOCC1 [P245]	< 50		
CNCCN(C)Cc1ccc(N2CCOC2=O)nc1C1CCN(c2cccc(C)c2)CC1 [P360]	50 to 500		
Cc1cccc(N2CCC(c3nc(N)cnc3CN(C)CCN(C)C)CC2)c1 [P368]	50 to 500		
CNCCN(C)Cc1ccc(NCCNCC(=O)OC)nc1C1CCN(c2cccc(C)c2)CC1 [P362]	50 to 500		
CNCCN(C)Cc1ncccc1C1CCN(c2ccc(C(N)=O)cc2)CC1 [P299]	< 50		
CNCCN(C)Cc1ncccc1C1CCCOC1 (stereo not shown) [P246]	≥ 500		
CNCCN(C)Cc1ncccc1N1CCC(OCC(=O)NC)CC1 [P322]	< 50		
CNCCN(C)Cc1ncccc1C#Cc1cccc(C)c1 [P091]	≥ 500		
CNCCN(C)Cc1ccc2nncn2c1C1CCN(c2cccc(C)c2)CC1 [P232]	50 to 500		
CNCCN(C)Cc1ccc(NC(=O)N(C)C)nc1C1CCN(c2cccc(C)c2)CC1 [P363]	50 to 500		
CNCCN(C)Cc1ccc(F)cc1[C@H]1CC[C@@H](Oc2cc(C(F)(F)F)cc(C(F)(F)F)c2)CC1 [P026]	≥ 500		
CNCCN(C)Cc1ncccc1N1CCC(OCCOC)CC1 [P274]	< 50		
CNCCN(C)Cc1ccc(NS(=O)(=O)N(C)C)nc1C1CCN(c2cccc(C)c2)CC1 [P365]	50 to 500		
CNCCN(C)Cc1ncccc1C1CCN(C)CC1 [P152]	< 50		

Second part, led by results:

IC50 (PRMT1) [nM]	SMILES	IC50 (Toledo cells; Homo sapiens, Toledo, 144 h) [nM]	IC50 (Toledo cells) [nM]
< 50	CNCCN(C)Cc1ccc(CC(N)=O)cc1C1CCN(c2cccc(C)c2)CC1 [P195]	< 1000	
< 50	CNCCN(C)Cc1ccc(F)cc1C1CCN(c2cccc(C(C)(C)O)c2)CC1 [P076]	1000 to 5000	
50 to 500	CNCCN(C)Cc1cc(C(N)=O)ccc1C1CCN(c2cccc(C)c2)CC1 [P220]		
< 50	CNCCN(C)Cc1ccc(N(C)C)nc1C1CCN(c2cccc(C)c2)CC1 [P098]	< 1000	
50 to 500	CNCCN(C)Cc1ccc(OC)nc1C1CCN(c2cccc(C)c2)CC1 [P352]		
< 50	CNCCN(C)Cc1ncccc1N1CCc2cnc(N(C)C)nc2CC1 [P286]	1000 to 5000	
< 50	CNCCN(C)Cc1ncccc1N1CCc2ccccc2C1 [P127]	1000 to 5000	
< 50	CNCCN(C)Cc1ncccc1N1CCC(O)CC1 [P294]		
< 50	CNCCN(C)Cc1ccc(C)nc1C1CCN(c2ccc(F)cc2)CC1 [P086]	1000 to 5000	
< 50	CNCCN(C)Cc1ncccc1N1CCc2nc(C)nc(C)c2CC1 [P280]	≥ 5000	
< 50	CNCCN(C)Cc1ccc(C)nc1C1CCN(c2cccc(C(F)F)c2)CC1 [P061]	< 1000	
< 50	CNCCN(C)Cc1ncccc1C1CCN(c2ccccc2C(N)=O)CC1 [P298]	1000 to 5000	
< 50	CNCCN(C)Cc1ncccc1N1CCc2cnc(NC)nc2CC1 [P320]	≥ 5000	
< 50	CCC1CC=C(c2ccccc2CN(C)CCNC)CC1 (stereo not shown) [P016]	< 1000	
< 50	CNCCN(C)Cc1ccc(F)cc1C1CCc2ccc(C(F)(F)F)cc2CC1 (stereo not shown) [P002]		
≥ 500	CNCCN(C)Cc1ccc(F)cc1N1CCC(Oc2cc(C(F)(F)F)cc(C(F)(F)F)c2)CC1 [P032]		
< 50	CNCCN(C)Cc1ccc(C)nc1C1CCN(c2cc(C)c(F)cc2F)CC1 [P062]		
≥ 500	NCCCCc1ccccc1N1CCc2cc(F)c(F)cc2CC1 [P350]		
< 50	CNCCN(C)Cc1ccc2[nH]nnc2c1C1CCN(c2cccc(C)c2)CC1 [P265]		
< 50	CNCCN(C)Cc1ncccc1N1CCc2ccc(S(C)(=O)=O)cc2CC1 [P295]		
50 to 500	CNCCN(C)Cc1nc(N)cnc1C1CCN(c2cccc(C)c2)CC1 [P359]		
50 to 500	CNCCN(C)C(C)c1ccccc1N1CCc2cc(F)c(F)cc2CC1 (stereo not shown) [P351]		
50 to 500	CNCCN(C)Cc1ccc(=O)[nH]c1C1CCN(c2cccc(C)c2)CC1 [P211]		
< 50	CNCCN(C)Cc1ccccc1N1CCc2ccccc2C1 [P029]		
< 50	CNCCN(C)Cc1ccc(NC)nc1C1CCN(c2cccc(C)c2)CC1 [P358]		
< 50	CNCCN(C)Cc1ccc(-c2ncc[nH]2)cc1C1CCN(c2cccc(C)c2)CC1 [P154]		
